Source: patent US20260327250A1, “3-ETHYLAMINO-INDOLE DIMERS AS SEROTONERGIC AGENTS USEFUL FOR THE TREATMENT OF DISORDERS RELATED THERETO” (MINDSET PHARMA INC., priority 2022, published 2026)
Where a name gives a salt, the structure may show the parent alone. Read-outs that look alike come from different tables or passages of the source.

Target: T1, human 5-hydroxytryptamine receptor 2A (5-HT2A) (Homo sapiens, UniProt P28223)
T1 construct: expressed in transfected cells; host or cells: HTR2A&Ga15-HEK293
T1 sequence (P28223 whole entry): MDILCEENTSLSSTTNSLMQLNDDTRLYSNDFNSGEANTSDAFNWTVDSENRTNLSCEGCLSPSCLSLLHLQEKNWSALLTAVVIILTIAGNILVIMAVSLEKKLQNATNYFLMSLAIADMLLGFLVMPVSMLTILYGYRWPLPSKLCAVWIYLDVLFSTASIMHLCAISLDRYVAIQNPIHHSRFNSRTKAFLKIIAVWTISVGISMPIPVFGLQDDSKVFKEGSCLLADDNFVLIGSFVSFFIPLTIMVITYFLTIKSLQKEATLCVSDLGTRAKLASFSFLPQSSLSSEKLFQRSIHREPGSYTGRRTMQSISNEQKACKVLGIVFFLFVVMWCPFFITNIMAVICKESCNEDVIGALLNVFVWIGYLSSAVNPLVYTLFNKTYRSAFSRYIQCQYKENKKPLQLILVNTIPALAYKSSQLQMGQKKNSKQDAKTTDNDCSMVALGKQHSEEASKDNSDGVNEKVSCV
Experiment: Human 5-HT2A functional FLIPR assay (agonist mode)
Format: cell-based
Settings: for RFU@10 μM: footnote: Curve fitting with activation (%) @ 10 mM with RFU
Procedure: To assess the potential excitatory effects of compounds targeting on human 5-hydroxytryptamine receptor 2A (5-HT2A) under agonist mode
HTR2A&Ga15-HEK293 cells were cultured in DMEM medium containing 10% dialyzed FBS and 1× penicillin-streptomycin, 100 μg/mL Hygromycin B and 300 μg/mL G418. The cells were passaged about three times a week, maintained between ~30% to ~90% confluence.
• 1. The cell culture medium (DMEM medium containing 10% dialyzed FBS and 1× penicillin-streptomycin, 100 μg/mL Hygromycin B and 300 μg/mL G418), TrypLE™ Express and DPBS was warmed to R. T. in advance. • 2. For induction, 1 μg/ml tetracycline (final concentration) was added to cell culture medium and incubated for 48 hours prior to seeding cells into plate at 37° C., 5% (v/v) CO2. The cell culture medium was removed from flask. Washed cells with DPBS. • 3. 2 mL TrypLE™ Express was added to the flask, mixed well by gentle shaking and cells incubated at 37° C. for a few minutes. • 4. The cells morphological change was checked under microscope, and the digestion stopped by adding 4 mL cell culture medium to the flask when most of cells turned to round. • 5. The cell suspension was transferred into a 15 mL centrifuge tube, and then centrifuged at 1,200 rpm for 5 minutes. • 6. The supernatant was removed. The cell pellet was resuspended with 2 mL cell culture medium. • 7. The cell density was counted using cell counter. Only cells with >85% viability were used for the assay. • 8. Cells were diluted to 6.67×10^5/mL with cell culture medium. • 9. 30 μL/well cell suspensions was added into a 384-well cell plate (The cell density was 20,000 cells/well). • 10. The cell plate was incubated overnight at 37° C., 5% (v/v) CO2. 2.3 Cell handling • 1. On the day of experiments, culture medium was removed from the cell plate. • 12. 10 μL of assay buffer (20 mM HEPES, in 1× HBSS, pH 7.4) was added to each well of the cell plate. • 3. 2×dye solution was prepared following the manual of the FLIPR® Calcium 6 Assay Kit: • i. The dye was diluted with assay buffer. • ii. Probenecid was added to the final concentration of 5 mM. • iii. Vortexed vigorously for 1-2 minutes. • 4. 10 μL of 2× dye solution was added to each well of the cell plate • 5. The cell plate was placed on plate shaker, and was shaken at 600 rpm for 2 minutes. • 6. The plate was incubated at 37° C. for 2 hours followed by an additional 15-minute incubation at 25° C. 2.4 Prepare 3×compound • 1, Serotonin HCl was prepared to the concentration of 10 mM with DMSO. • 2. The test compounds were prepared to the concentration of 10 mM with DMSO. • 3. The compounds were added to a 384-well compound source plate. • 4. 3-folds serial dilutions were performed with DMSO. • 5. 90 nL/well of serial diluted compounds were transferred from source plate to a 384-well compound plate by using an Echo. • 6. 30 μL/well of assay buffer (20 mM HEPES in 1× HBSS, pH 7.4) were added to the compound plate. • 7. Mixed on the plate-on-plate shaker for 2 minutes.
• 1, After the cells were incubated with dye solution, the cell plate, compound plate containing 3×compounds and FLIPR tips were placed into FLIPR. • 2, 10 μL of 3×compounds were transferred from the compound plate to the cell plate by FLIPR. • 3, The plate was read for 160 sec with 1 sec interval to obtain the data of agonist mode.
• 1, The normalized fluorescence reading (RFU) was calculated as shown below, wherein Fmax and Fmin stand for maximum and minimum of calcium signal during defined time window:
[formula] • 2. EC50 was calculated by fitting RFU against log of compound concentrations with Hill equation using XLfit.

[1] = FLIPR, agonist mode, ND = Not detected, read-out: h5-HT2A, EC50

Row | SMILES | RFU@10 μM | EC50 [1] | EC50
1 | CC(C)N(CCc1c[nH]c2cccc(O)c12)C(C)C [Compound 7] | 6358 RFU | 81.4 nM | 
2 | CN(C)CCc1c[nH]c2cccc(OC(=O)CCCC(=O)Oc3cccc4[nH]cc(CCN(C)C)c34)c12 [Compound I-24, Bis(3-(2-(dimethylamino)ethyl)-1H-indol-4-yl) glutarate] | 3061 RFU | 24.9 nM | 
3 | CC(C)N(CCc1c[nH]c2cccc(OC(=O)CCCC(=O)Oc3cccc4[nH]cc(CCN(C(C)C)C(C)C)c34)c12)C(C)C [Compound I-37, Bis(3-(2-(diisopropylamino)ethyl)-1H-indol-4-yl) glutarate dihydrochloride] | 6768 RFU |  | 158 nM
4 | CN(C)CCc1c[nH]c2cccc(O)c12 [Psilocin, 4-hydroxy-N,N-dimethyltryptamine, reference compound] | 308 RFU |  | 
5 | CN(C)CCc1c[nH]c2cccc(OP(=O)(O)O)c12 [Psilocybin] | 257 RFU |  | 
